Assay results reported in US20240336617A1, “Substituted Bimane Compounds and Methods of Use Thereof” (THE TRUSTEES OF THE UNIVERSITY OF PENNSYLVANIA, priority 2023, published 2024).

Columns and labels:
[1] = target: T1, αS fibrils (Homo sapiens, UniProt P37840); assay: Competition binding with ThT on αS fibrils
T1 construct: intein-His6 (C, cleaved yes); made in house; host or cells: Escherichia coli BL21

[2] = pH measurements (absorption and emission); type: physicochemical; conditions: pH 2-11
Method: 10 mM stock solutions of 7h, 7j, and 7k in DMSO were individually diluted into ACN/PBS buffer (50:50 v/v) having different pH ranging from pH 2-11 with 25 μM (500 μL) of final concentration. For pH screening of 7h and 7j, PBS buffer solutions were prepared, then adjusted the pH 2, 4, and 7 by adding 6 M hydrochloric acid, pH 9 and 11 by adding 5 M sodium hydroxide. For pH screening of 7k, pH 4.4 and 7.4 were prepared by citric acid/phosphate buffer. Then, the absorption and fluorescence spectra were recorded by using Thermo Scientific Genesys 150 UV-Vis spectrometer, followed by PTI QuantaMaster™ 40 fluorescence spectrometer by excitation with maximum absorption wavelength.
pH measurements. 10 mM stock solutions of 5h and 5j in DMSO were individually diluted into ACN/PBS buffer (50:50 v/v) having different pH ranging from pH 2-11 with 25 µM (500 μL) of final concentration. For pH screening of 5h and 5j, PBS buffer solutions were prepared, then adjusted the pH 2, 4, and 7 by adding 6 M hydrochloric acid, pH 9 and 11 by adding 5 M sodium hydroxide. Then, we have recorded the absorption and fluorescence spectra by using Thermo Scientific Genesys 150 UV-Vis spectrometer, followed by PTI QuantaMaster™ 40 fluorescence spectrometer by excitation with maximum absorption wavelength.

[3] = target: T2, tau fibrils (Homo sapiens, UniProt P10636); assay: Fluorescence and excitation spectra with tau fibrils; type: binding
T2 construct: made in house; host or cells: E. coli BL21
T2 sequence (P10636 1-412 isoform P10636-7): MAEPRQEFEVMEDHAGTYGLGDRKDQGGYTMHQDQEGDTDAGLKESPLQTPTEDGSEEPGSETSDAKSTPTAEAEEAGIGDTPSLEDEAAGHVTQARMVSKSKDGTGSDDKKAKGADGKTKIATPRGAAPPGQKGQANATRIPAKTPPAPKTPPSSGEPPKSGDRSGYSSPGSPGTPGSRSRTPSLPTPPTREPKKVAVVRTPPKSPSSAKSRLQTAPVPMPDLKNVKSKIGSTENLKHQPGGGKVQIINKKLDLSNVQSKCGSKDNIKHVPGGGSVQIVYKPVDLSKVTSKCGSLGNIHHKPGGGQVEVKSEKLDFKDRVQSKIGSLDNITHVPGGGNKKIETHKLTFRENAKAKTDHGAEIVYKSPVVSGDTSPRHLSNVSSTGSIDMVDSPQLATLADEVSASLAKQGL
Method: (§1) Fluorescence measurements were performed using a PTI QuantaMaster™ 40 fluorescence spectrometer. Fluorescence spectra of 5 μM probes (concentrated stock solution prepared as 10 mM in DMSO) (7j, 7k, 7l, 7m, and ThT) in PBS buffer were measured in the absence and presence of 25 μM tau fibrils (stock solution 32 μM tau fibrils in PBS buffer).
as §1, with “Excitation spectral measurements” for “Fluorescence measurements”, “spectrometer. Excitation” for “spectrometer. Fluorescence”
as §1, with “QuantaMaster” for “QuantaMaster™”, “(5j, 5k,” for “(7j, 7k, 7l, 7m,”
Excitation spectral measurements were performed using a PTI QuantaMaster™ 40 fluorescence spectrometer. Excitation spectra of 5 μM probes (concentrated stock solution prepared as 10 mM in DMSO) (5j, 5k, and ThT) in PBS buffer were measured in the absence and presence of 25 μM tau fibrils (stock solution 32 μM tau fibrils in PBS buffer). […]

[4] = target: bovine serum albumin (BSA) (Bos taurus, UniProt P02769); assay: Fluorescence in the presence of BSA; type: binding
Sequence of bovine serum albumin (BSA) (P02769 25-607): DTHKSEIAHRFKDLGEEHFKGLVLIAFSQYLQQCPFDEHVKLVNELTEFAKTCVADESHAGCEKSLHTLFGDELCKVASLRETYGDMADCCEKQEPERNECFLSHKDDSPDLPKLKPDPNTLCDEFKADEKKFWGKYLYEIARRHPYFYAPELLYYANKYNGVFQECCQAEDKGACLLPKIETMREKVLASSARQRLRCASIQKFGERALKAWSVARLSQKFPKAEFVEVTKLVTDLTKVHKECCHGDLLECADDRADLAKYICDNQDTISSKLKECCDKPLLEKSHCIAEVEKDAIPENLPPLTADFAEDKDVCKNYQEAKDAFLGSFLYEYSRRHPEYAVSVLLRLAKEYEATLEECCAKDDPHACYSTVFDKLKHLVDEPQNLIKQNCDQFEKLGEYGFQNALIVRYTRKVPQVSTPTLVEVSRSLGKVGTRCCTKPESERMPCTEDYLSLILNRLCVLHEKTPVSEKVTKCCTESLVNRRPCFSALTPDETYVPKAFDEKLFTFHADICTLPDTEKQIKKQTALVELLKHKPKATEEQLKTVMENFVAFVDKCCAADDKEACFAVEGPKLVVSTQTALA

Cc1c(C)n2c(/C=C/c3ccc(N4CCOCC4)cc3)c(C)c(=O)n2c1=O [Compound 7k, (E)-2,3,6-trimethyl-5-(4-morpholinostyryl)-1H,7H-pyrazolo[1,2-a]pyrazole-1,7-dione]
competition with ThT on αS PFFs [1]: higher affinity compared than ThT

Cc1c(C)n2c(/C=C/c3ccc(N)cc3)c(C)c(=O)n2c1=O [Compound 7j, (E)-3-(4-aminostyryl)-2,5,6-trimethyl-1H,7H-pyrazolo[1,2-a]pyrazole-1,7-dione]
pH effects on absorption and emission [2]: blue-shifted absorption and emission at pH 2

Cc1c(C)n2c(/C=C/c3ccc(N(C)C)cc3)c(C)c(=O)n2c1=O [Compound 7l, (E)-3-(4-(dimethylamino)styryl)-2,5,6-trimethyl-1H,7H-pyrazolo[1,2-a]pyrazole-1,7-dione]
emission maximum bound to tau [3]: 596 nm
fluorescence turn on with BSA [4]: turn-on was possible
λmax (λem) with BSA ([4]; 10 μM probe, BSA 50 μM, excitation 418 nm): 555 nm
